Test results from patent US4868195A, “Novel enolamides, pharmaceutical compositions and methods of use thereof for activity as modulators of the arachidonic acid cascade” (Warner-Lambert Company, priority 1988, dated 1989).

Each compound was assayed on Human Leukocyte Lipoxygenase (assay: Human Leukocyte Lipoxygenase Assay (LDA-H)). Settings: Concentration 1.00 E -5 M.
Type: biochemical
Procedure: Human Leukocyte Lipoxygenase Assay (LDA-H)
Whole blood is collected from normal volunteers and spun in a refrigerated centrifuge for four minutes at 1°-6° C. at 3800 g. The buffy coat is manually separated and washed twice with chilled 0.83% NH4 Cl and centrifuged at 1000 RPM for ten minutes at 4° C. The white cell is suspended in culture media-EMEM supplemented with 6% Agamma human serum, tricine buffer, and neomycin and recentrifuged at 1000 g to yield a pellet containing the leukocytes used for the preparation of the acetone pentane powder.
The acetone-pentane powder is prepared utilizing a modification of the procedure reported for human platelet lipoxygenase. See Siegel, et al, Arachidonate Metabolism via Lipoxygenase and 12-L-hydroperoxy-5 Eicosatetraenoic Acid Peroxidase Sensitive to Antiinflammatory Drugs, Proc. Natl. Acad. Sci., USA 77: 308, 1980 and D. P. Wallach and V. R. Brown, A Novel Preparation of Human Platlet Lipoxygenase, Biochem. Biophys. Acta. 663: 361, 1981. Buffy coat prepared above is resuspended in 5-7 volumes of cold 0.1M Tris buffer, pH 7.4 containing 0.154M NaCl. The suspension is centrifuged at 13,300 g for ten minutes at 4° C. The resultant pellet is retained, resuspended in five volumes of cold acetone, recentrifuged at 13,300 g and resuspended in five volumes of cold pentane. The pentane suspension is centrifuged for ten minutes at 13,300 g to give a pellet which is dried in the cold under vacuum with periodic pulverization. The dry powder is stable for several weeks when stored at -80° C.
Enzyme stock solution is prepared in the following manner. About 15 mg of the acetone-pentane powder is suspended in 4 ml of cold tris buffer (0.1M, pH 7.4), allowed to stand for five minutes, and homogenized thoroughly. The homogenate is sonicated three times for 15 seconds each time, diluted to 7 ml with cold tris buffer (0.1M, pH 7.4), and centrifuged at 4° C. for 60 minutes at 13,300 g. the supernatent is retained and diluted to a total of 10 ml with cold tris buffer (0.1M, pH 7.4) to give the stock enzyme solution. Additional dilutions of 2-50 fold are done as necessary to locate optimal enzyme reaction rate in the assay described below.
Substrate solution is prepared at 100 μM or 1.0 μM concentrations of arachidonic acid or linoleic acid in 0.1M tris buffer, pH 9.0 containing 20% ethanol.
The enzyme reaction is followed spectrophotometrically by the appearance of a conjugated diene product at 234 nm. The reaction is monitored at 24° C. using a Gilford Model 2600 spectrophotometer. […] The effects of inhibitors on the reaction are compared with control reactions run under indentical conditions. Routinely, each compounds of the present invention is incubated with the enzyme for five minutes prior to addition of substrate to initiate the reaction. Inhibition expressed as IC50 as molar concentration of the compound required to reduce reaction rate to 50% control.
`COc1ccc(CCc2ccc(NC(=O)C(=O)C3=C(O)c4ccccc4S(=O)(=O)C3)cc2)cc1OC` [Example 3, N-[4-[2-(3,4-Dimethoxyphenyl)ethyl)phenyl]-4-hydroxy-α-oxo-2H-1-benzothiopyran-3-acetamide, 1,1-dioxide] was tested, and the “% Inhibition (LDAH)” value was 0.0%.

Same assay, conditions: Concentration 2.50 E -5 M
With `COc1ccc(CCc2ccc(NC(=O)C(=O)C3=C(O)c4ccccc4S(=O)(=O)C3)cc2)cc1OC` [Example 3, N-[4-[2-(3,4-Dimethoxyphenyl)ethyl)phenyl]-4-hydroxy-α-oxo-2H-1-benzothiopyran-3-acetamide, 1,1-dioxide] the “% Inhibition (LDAH)” value was 0.0%.
In the case of `O=C(Nc1ccc(Cc2ccc(O)c(O)c2)cc1)C1CS(=O)(=O)c2ccccc2C1=O` (stereo not shown) [Example 14, N-[4-[(3,4-Dihydroxyphenyl)methyl]phenyl]-3,4-dihydro-4-oxo-2H-1-benzothiopyran-3-carboxamide, 1,1-dioxide], the “% Inhibition (LDAH)” value is reported as 0.0%.
`O=C(Nc1ccc(CCCCc2ccc(O)c(O)c2)cc1)C1CS(=O)(=O)c2ccccc2C1=O` (stereo not shown) [Example 23, N-[4-[4-(3,4-Dihydroxyphenyl)butyl]phenyl]-3,4-dihydro-4-oxo-2H-1-benzothiopyran-3-carboxamide, 1,1-dioxide] was tested, and the “% Inhibition (LDAH)” value was 0.0%.
In the case of `O=C(Nc1ccc(CCc2cc(O)c(O)c(O)c2)cc1)C1=C(O)c2ccccc2S(=O)(=O)C1` [Example 36], the “% Inhibition (LDAH)” value is reported as 0.0%.
For `COc1ccc(CCc2ccc(NC(=O)C(=O)C3Oc4cc5ccccc5cc4C3=O)cc2)cc1OC` (stereo not drawn) [Example 117, Naptho[2,3-b]furan-2-acetamide, N-[4-[2-(3,4-dimethoxyphenyl)ethyl]phenyl]-2,3-dihydro-α,3-dioxo], the “% Inhibition (LDAH)” value was 0.0%.
For `COc1ccc(CCc2ccc(NC(=O)C(=O)c3[nH]c4cc(C)c(C)cc4c3O)cc2)cc1OC` [Example 175, 1H-Indole-2-acetamide, N-[4-[2-(3,4-dimethoxyphenyl)ethyl]phenyl]-3-hydroxy-5,6-dimethyl-α-oxo], the “% Inhibition (LDAH)” value was 0.0%.

Same assay, conditions: Concentration 7.90 E -9 M
`CCCCCCCCCCc1ccc(NC(=O)C(=O)c2oc3cc(OC)c(OC)cc3c2O)cc1` [Example 119, 2-Benzofuranacetamide, N-[4-decylphenyl]-3-hydroxy-5,6-dimethoxy-α-oxo] was tested, and the “% Inhibition (LDAH)” value was 50.0%.

Same assay, conditions: Concentration 8.00 E -5 M
With `COc1ccc(CCc2ccc(NC(=O)C3CS(=O)(=O)c4ccccc4C3=O)cc2)cc1NC(C)=O` (stereo not shown) [Example 50, N-[4-[2-(3-Acetylamino-4-methoxy)ethyl]phenyl]-3,4-dihydro-4-oxo-2H-1-benzothiopyran-3-carboxamide, 1,1-dioxide] the “% Inhibition (LDAH)” value was 0.0%.
With `COc1ccc(CCc2ccc(NC(=O)C(=O)c3oc4cc(OC)c(OC)cc4c3O)cc2)cc1OC` [Example 115, 2-Benzofuranacetamide, N-[4-[2-(3,4-dimethoxyphenyl)ethyl]phenyl]-3-hydroxy-5,6-dimethoxy-α-oxo] the “% Inhibition (LDAH)” value was 0.0%.

Same assay, conditions: acetone-pentane powder enzyme, 234 nm, 24° C., 5 min preincubation; read-out: Concentration (M) for 50.0 % Inhibition, IC (LDAH)
For `O=C(Nc1ccc(CCc2ccc(Cl)cc2)cc1)C(=O)C1=C(O)c2ccccc2SC1` [Example 4, N-[4-[2-(4-chlorophenyl)ethyl]phenyl]-4-hydroxy-α-oxo-2H-1-benzothiopyran-3-acetamide], the IC50 was 4.5e-05 M.
In the case of `CCCCCCCCCCc1ccc(NC(=O)C(=O)C2=C(O)c3ccccc3S(=O)(=O)C2)cc1` [Example 9, N-(4-Decylphenyl)-4-hydroxy-α-oxo-2H-1-benzothiopyran-3-acetamide, 1,1-dioxide], the IC50 is reported as 7.7e-05 M.
`O=C(O)c1ccc(CCc2ccc(NC(=O)C3CS(=O)(=O)c4ccccc4C3=O)cc2)cc1` (stereo not shown) [Example 12, 4-[2-[4-[[(3,4-Dihydro-4-oxo-2H-1-benzothiopyran-3-yl)carbonyl]amino]phenyl]ethyl]benzoic acid, 1,1-dioxide] showed an IC50 of 3.4e-06 M.
With `Nc1ccc(CCc2ccc(NC(=O)C3CS(=O)(=O)c4ccccc4C3=O)cc2)cc1` (stereo not shown) [Example 52, N-[4-[2-(4-Aminophenyl)ethyl]phenyl]-3,4-dihydro-4-oxo-2H-1-benzothiopyran-3-carboxamide, 1,1-dioxide] the IC50 was 6e-05 M.
Compound `CN(C)c1ccc(CCc2ccc(NC(=O)C3CS(=O)(=O)c4ccccc4C3=O)cc2)cc1` (stereo not shown) [Example 55] has an IC50 of 6.8e-05 M.
Work on `COc1ccc(CCc2ccc(NC(=O)c3oc4ccc5ccccc5c4c3O)cc2)cc1OC` [Example 103, Naptho[2,1-b]furan-2-carboxamide, 1-hydroxy-N-[4-[2-(3,4-dimethoxyphenyl)ethyl]phenyl]] yielded an IC50 of 1.1e-06 M.
Work on `COc1cccc2c(O)c(C(=O)C(=O)Nc3ccc(CCc4ccc(O)c(O)c4)cc3)oc12` [Example 123, 2-Benzofuranacetamide, N-[4-[2-(3,4-dihydroxyphenyl)ethyl]phenyl]-3-hydroxy-7-methoxy-α-oxo] yielded an IC50 of 2.5e-05 M.
In the case of `CCCCCCCCCCc1ccc(NC(=O)C(=O)c2sc3ccc(Cl)cc3c2O)cc1` [Example 135, Benzo[b]thiophene-2-acetamide, 5-chloro-N-(4-decylphenyl)-3-hydroxy-α-oxo], the IC50 is reported as 2.5e-05 M.
For `COc1ccc(CCc2ccc(NC(=O)C(=O)C3=C(O)c4ccccc4OC3)cc2)cc1OC` [Example 152], the IC50 was 5.7e-07 M.
Work on `O=C(Nc1ccc(CCc2ccc(O)c(O)c2)cc1)C1Oc2c(n(-c3ccccc3)c3ccccc23)C1=O` (stereo not shown) [Example 166, 2H-Furo[3,2-b]indole-2-carboxamide, N-[4-[2-(3,4-dihydroxyphenyl)ethyl]phenyl]-3,4-dihydro-3-oxo-4-phenyl] yielded an IC50 of 2.7e-05 M.
In the case of `Cc1cc2[nH]c(C(=O)C(=O)Nc3ccc(CCc4ccc(O)c(O)c4)cc3)c(O)c2cc1C` [Example 177, 1H-Indole-2-acetamide, N-[4-[2-(3,4-dihydroxyphenyl)ethyl]phenyl]-3-hydroxy-5,6-dimethyl-α-oxo], the IC50 is reported as 8e-05 M.
For “N-[4-[3-(3,4-Dihydroxyphenyl)propyl]phenyl]-3,4-dihydro-2H-1-benzothiopyran-3-carboxamide, 1,1-dioxide [Example 22]”, the IC50 was 1.3e-05 M.
